From patent US6867211B2, “4-Pyridyl-and 2,4-pyrimidinyl-substituted pyrrole derivatives and their use in pharmacy” (Merckle GmbH, priority 2000, dated 2005)

Key:
Assay type in all cases: cell-based
TNFα [1] = assay: In vitro test procedure using PBMCs, LPS-stimulated, TNFα by ELISA; conditions: Homo sapiens, PBMC; for inhibition at 10 µM: at 10 μmol
Protocol: (§1) In vitro Test Procedure Using PBMCs
(§2) The mononuclear cells (PBMCs) are isolated from human potassium-EDTA whole blood diluted 1:3 by means of density gradient centrifugation (Histopaque®-1.077). After 2 washing steps with DPBS buffer, the mononuclear cells are resuspended in macrophage-SFM medium and adjusted to a cell count of 1×10^6 cells/ml.
(§3) The PBMCs suspension (at 390 μl) is preincubated with test substance for 15 min at 37° C. in a CO2 incubator (5% CO2; 95% moisture-saturated air). The samples are subsequently stimulated for 4 hours with 1 μg/ml LPS (E.coli 026:B6) at 37° C. in a CO2 incubator (5% CO2, 95% moisture-saturated air). The reaction is ended by placing the samples on ice, addition of DPBS buffer and centrifugation (15880×g; 12 min). The supernatant is used for the quantification of IL-1β and TNFα by means of ELISA.

IL-1β [2] = assay: In vitro test procedure using PBMCs, LPS-stimulated, IL-1β by ELISA; conditions: Homo sapiens, PBMC; for inhibition at 10 µM: at 10 μmol
Protocol: as §1, §2, §3

TNFα [3] = assay: In vitro test procedure using human whole blood, LPS-stimulated, TNFα by ELISA; conditions: whole-blood method; for IC50: Homo sapiens
Protocol: (§4) In vitro Test Procedure Using Human Whole Blood
(§5) Human potassium-EDTA whole blood (at 400 μl) is preincubated with test substance for 15 min. at 37° C. in a CO2 incubator (5% CO2; 95% moisture-saturated air). The samples are then stimulated for 4 hours with 1 μg/ml of LPS (E. coli 026:B6) at 37° C. in a CO2 incubator (5% CO2; 95% moisture-saturated air). The reaction is ended by placing the samples on ice, addition of DPBS buffer and subsequent centrifugation (1000×g; 15 min). The plasma supernatant is used for the quantification of IL-1β and TNFα by means of ELISA.

IL-1β [4] = assay: In vitro test procedure using human whole blood, LPS-stimulated, IL-1β by ELISA; conditions: whole-blood method; for IC50: Homo sapiens
Protocol: as §4, §5

5-lipoxygenase = target: T1, 5-lipoxygenase (Homo sapiens, UniProt P09917); assay: In vitro test system for determining the inhibition of 5-lipoxygenase (LTB4 from human granulocytes, A 23187, ELISA); conditions: for IC50: human granulocytes, read-out: 5-LO IC50
T1 construct: Human granulocytes are used as a source of the 5-lipoxygenase; endogenous in cells; host or cells: human granulocytes isolated from heparinised blood on a Percoll gradient
T1 sequence (P09917 1-674): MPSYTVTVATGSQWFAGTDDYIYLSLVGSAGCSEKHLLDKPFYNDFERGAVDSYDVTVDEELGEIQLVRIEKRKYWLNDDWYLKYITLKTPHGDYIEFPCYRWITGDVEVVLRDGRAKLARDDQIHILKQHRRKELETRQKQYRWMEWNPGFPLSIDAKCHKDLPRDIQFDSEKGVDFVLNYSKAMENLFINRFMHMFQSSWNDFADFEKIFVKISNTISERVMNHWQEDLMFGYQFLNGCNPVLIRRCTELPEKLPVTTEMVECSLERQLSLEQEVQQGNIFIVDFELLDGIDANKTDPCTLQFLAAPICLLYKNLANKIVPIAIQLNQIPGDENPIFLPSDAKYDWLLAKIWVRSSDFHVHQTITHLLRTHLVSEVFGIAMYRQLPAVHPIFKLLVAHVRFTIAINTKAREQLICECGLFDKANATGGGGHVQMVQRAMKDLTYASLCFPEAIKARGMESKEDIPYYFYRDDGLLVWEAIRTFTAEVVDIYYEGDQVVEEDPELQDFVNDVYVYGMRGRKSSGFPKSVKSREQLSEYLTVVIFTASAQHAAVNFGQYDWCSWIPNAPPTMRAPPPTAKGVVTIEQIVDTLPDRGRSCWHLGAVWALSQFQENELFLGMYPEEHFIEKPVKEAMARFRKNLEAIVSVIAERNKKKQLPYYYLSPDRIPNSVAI
Protocol: In vitro Test System for Determining the Inhibition of 5-lipoxygenase
Human granulocytes are used as a source of the 5-lipoxygenase. LTB4 (leukotriene B4) is formed from endogenous arachidonic acid by means of stimulation with calcium ionophore A 23187. The granulocytes are isolated and the enzyme reaction is carried out according to known processes (see Arch. Pharm. Pharm. Med. Chem. 330, 307-312 (1997)).
The blood, which is protected from clotting with heparin, is centrifuged on a discontinuous Percoll® gradient and the granulocyte layer is pipetted off. After lysis of the erythrocytes, the granulocytes are washed a number of times and then adjusted to a specific cell count. The enzyme reaction is then started with calcium ionophore A 23187 in the presence or absence of the test substance after addition of Ca2+. The synthesis of the leukotrienes is stopped after 1.5 minutes. The samples are centrifuged off and the supernatant is diluted. LTB4 is determined quantitatively by means of ELISA.

cyclooxygenase-1 = target: T2, cyclooxygenase-1 (Homo sapiens, UniProt P23219); assay: In vitro test system for determining the inhibition of cyclooxygenase-1 (PGE2 from human platelets, calcium ionophore, ELISA); conditions: for COX-1 percentage inhibition: at 10 μmol
T2 construct: endogenous in cells; host or cells: human platelets isolated on a discontinuous Percoll gradient
T2 sequence (P23219 24-599): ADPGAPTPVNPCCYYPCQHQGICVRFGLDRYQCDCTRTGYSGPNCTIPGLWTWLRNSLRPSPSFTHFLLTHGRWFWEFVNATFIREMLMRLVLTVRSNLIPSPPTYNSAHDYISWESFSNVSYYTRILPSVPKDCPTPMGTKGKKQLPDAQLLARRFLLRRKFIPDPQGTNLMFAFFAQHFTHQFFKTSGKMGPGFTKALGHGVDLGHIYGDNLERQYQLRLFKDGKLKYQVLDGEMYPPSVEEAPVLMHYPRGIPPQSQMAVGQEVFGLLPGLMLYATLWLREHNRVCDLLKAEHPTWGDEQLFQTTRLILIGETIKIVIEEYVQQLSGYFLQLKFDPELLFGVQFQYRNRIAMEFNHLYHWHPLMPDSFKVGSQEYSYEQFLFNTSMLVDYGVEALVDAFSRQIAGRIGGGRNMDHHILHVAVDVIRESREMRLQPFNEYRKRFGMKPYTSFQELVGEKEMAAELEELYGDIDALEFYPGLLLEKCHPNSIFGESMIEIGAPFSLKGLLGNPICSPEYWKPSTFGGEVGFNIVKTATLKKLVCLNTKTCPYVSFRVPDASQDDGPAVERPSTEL
Protocol: In vitro Test System for Determining the Inhibition of Cyclooxygenase-1
In this test system, the amount of prostaglandin E2 formed from human platelets after addition of calcium ionophore is determined by means of ELISA. In this process, the platelets are obtained after centrifugation on a discontinuous Percoll® gradient. The enzyme reaction and the determination of the metabolites formed is carried out in principle as in the determination of 5-lipoxygenase inhibition. Differences exist with respect to the incubation time. Furthermore, the addition of a thromboxane synthesis inhibitor is necessary (see Arch. Pharm. Pharm. Med. Chem. 330, 307-312 (1997)).

[5] = 4 h, read-out: TNFα percentage inhibition
[6] = 4 h, read-out: IL-1β percentage inhibition

SMILES	inhibition at 10 µM (TNFα [1]; [5]) [%]	inhibition at 10 µM (IL-1β [2]; [6]) [%]	IC50 (TNFα [3]) [µM]	IC50 (IL-1β [4]) [µM]	IC50 (TNFα [1]) [µM]	IC50 (IL-1β [2]) [µM]	IC50 (5-lipoxygenase) [nM]	COX-1 percentage inhibition (cyclooxygenase-1)	also measured
CCOC(=O)c1c(-c2ccncc2)c(-c2ccc(F)cc2)n2c1CCC2 [Example 1A, Ethyl 3-(4-fluorophenyl)-2-(4-pyridyl)-6,7-dihydro-5H-pyrrolizine-1-carboxylate]	13	21	30	30					
CCOC(=O)c1c(-c2ccncc2)c2n(c1-c1ccc(F)cc1)CCC2 [Example 1B, Ethyl 3-(4-fluorophenyl)-1-(4-pyridyl)-6,7-dihydro-5H-pyrrolizine-2-carboxylate]	60				1.4	1.4	2000		inhibition at 1 µM (TNFα [1]; 4 h, at 1 μmol, read-out: TNFα percentage inhibition): 12%
O=C(O)c1c(-c2ccncc2)c(-c2ccc(F)cc2)n2c1CCC2 [Example 2, 3-(4-Fluorophenyl)-2-(4-pyridyl)-6,7-dihydro-5H-pyrrolizine-1-carboxylic acid]	37	17	16	2.9					
O=C(O)c1c(-c2ccncc2)c(-c2cccs2)n2c1CCC2 [Example 7, 3-(2-Thienyl)-2-(4-pyridyl)-6,7-dihydro-5H-pyrrolizine-1-carboxylic acid]			48	52				10/40%	
CCOC(=O)c1c(-c2ccncc2)c(-c2ccc(Cl)s2)n2c1CCC2 [Example 9A, Ethyl 3-(5-chloro-2-thienyl)-2-(4-pyridyl)-6,7-dihydro-5H-pyrrolizine-1-carboxylate]	38	47	38	22			1300	10/11%	
O=C(O)c1c(-c2ccncc2)c(-c2ccc(F)cc2)n2c1SCC2 [Example 11, 5-(4-Fluorophenyl)-6-(4-pyridyl)-2,3-dihydro-pyrrole-[2,1-b]-thiazole-7-carboxylic acid]					6.8	2.3		10/33%	TNFα percentage inhibition (TNFα [3]; at 100 μmol): 45%; IL-1β percentage inhibition (IL-1β [4]; at 100 μmol): 45%; 5-LO percentage inhibition (5-lipoxygenase; at 10 μmol): 10/30%
OCc1c(-c2ccncc2)c(-c2ccc(F)cc2)n2c1SCC2 [Example 12, [5-(4-Fluorophenyl)-6-(4-pyridyl)-2,3-dihydro-pyrrolo-[2,1-b]-thiazol-7-yl]methanol]	44		45	76		7.6			
Cc1c(-c2ccncc2)c(-c2ccc(F)cc2)n2c1SCC2 [Example 13, 5-(4-Fluorophenyl)-7-methyl-6-pyridin-4-yl-2,3-dihydropyrrolo-[2,1-b]-thiazole]		43	41	80	8.1		40	10/45%	
Fc1ccc(-c2c(-c3ccncc3)cc3n2CCS3)cc1 [Example 14, 5-(4-Fluorophenyl)-6-pyridin-4-yl-2,3-dihydro-pyrrolo-[2,1-b]-thiazole]					7.6	8.5	2400		IC50 (cyclooxygenase-1; human platelets, read-out: COX-1 IC50): 2300 nM
Cc1c(-c2ccncc2)c(-c2ccc(F)cc2)n2c1CCCC2 [Example 17, 3-(4-Fluorophenyl)-1-methyl-2-(4-pyridyl)-5,6,7,8-tetrahydroindolizine]		67	39	33	4		2200	10/48%	inhibition at 1 µM (IL-1β [2]; 4 h, at 1 μmol, read-out: IL-1β percentage inhibition): 0%
Fc1ccc(-c2c(-c3ccccc3)c3n(c2-c2ccncc2)CCC3)cc1 [Example 25]					87				
